By IC50 is commonly meant the concentration that gives 50% inhibition. The term EC50 denotes the midpoint of the concentration-response curve.

In patent US20160002204A1 (Board of Regents, The University of Texas System, priority 2014, published 2016) one finds IC50 and EC50 data, which are given here for 21 compounds.

The target in experiment [1] is T1, GLS1 (purified recombinant human GAC) (Homo sapiens, UniProt O94925).
T1 sequence (O94925 55-598 isoform O94925-3 limits assumed): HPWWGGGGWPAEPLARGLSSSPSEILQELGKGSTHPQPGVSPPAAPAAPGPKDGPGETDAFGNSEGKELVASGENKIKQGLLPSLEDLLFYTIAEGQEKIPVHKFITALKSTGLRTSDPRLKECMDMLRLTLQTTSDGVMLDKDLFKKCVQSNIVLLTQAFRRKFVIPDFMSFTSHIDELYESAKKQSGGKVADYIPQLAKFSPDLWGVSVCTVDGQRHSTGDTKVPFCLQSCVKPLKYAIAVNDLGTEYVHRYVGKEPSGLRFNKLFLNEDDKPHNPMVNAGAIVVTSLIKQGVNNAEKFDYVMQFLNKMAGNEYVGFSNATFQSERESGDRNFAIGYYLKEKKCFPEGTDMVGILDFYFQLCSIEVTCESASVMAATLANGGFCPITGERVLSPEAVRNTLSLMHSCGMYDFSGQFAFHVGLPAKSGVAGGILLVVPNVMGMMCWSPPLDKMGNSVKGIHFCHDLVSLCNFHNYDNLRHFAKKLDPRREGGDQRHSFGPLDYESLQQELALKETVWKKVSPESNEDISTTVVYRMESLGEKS
The experiment in a line: GLS1 enzymatic activity assay (dual-coupled, Amplex UltraRed/resorufin). The class given is biochemical. In a few lines: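 In this coupled fluorometric format, phosphate-activated GAC (2 nM, 50 mM phosphate) is pre-exposed to compound for 10 min before 1 mM glutamine addition. Product is tracked as resorufin (530/590 nm) over time or at 20 min, and potency is derived by logistic fitting.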

In experiment [2] the test system is A549 cells. Put plainly: A549 proliferation (viability) assay, Cell Titer Fluor, 72 hours. The class given is cell-based. The conditions noted are these: Homo sapiens. The gist of the method:
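A549 cells seeded at 1000 cells/well, left 24 h, then exposed to compound for 72 h at 37 °C, 5% CO2, final DMSO 0.5% (v/v). Viability read by Cell Titer Fluor fluorescence; EC50 from four-parameter logistic fit.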

Some results are limits rather than exact numbers.

Take `O=C(CC1CCCCC1)Nc1ccn(CCC(F)Cn2cc(C(=O)NCc3cccc(C(F)(F)F)c3)nn2)c(=O)c1F` (stereo not drawn) [Example 264, 1-{4-[4-(2-cyclohexylacetamido)-3-fluoro-2-oxo-1,2-dihydropyridin-1-yl]-2-fluorobutyl}-N-{[3-(trifluoromethyl)phenyl]methyl}-1H-1,2,3-triazole-4-carboxamide]: the IC50 in experiment [1] is less than 100 nM. Moreover, the EC50 in experiment [2] is less than 100 nM.

Regarding `O=C(Nc1ccn(CCC(F)Cn2cc(C(=O)NCc3ccc(C(F)(F)F)nc3)nn2)c(=O)c1F)OC1CCC1` (stereo not drawn) [Example 399, cyclobutyl N-(3-fluoro-1-{3-fluoro-4-[4-({[6-(trifluoromethyl)pyridin-3-yl]methyl}carbamoyl)-1H-1,2,3-triazol-1-yl]butyl}-2-oxo-1,2-dihydropyridin-4-yl)carbamate], the IC50 in experiment [1] is 100 to 500 nM. For the same compound, in experiment [2], the concentration giving a half-maximal response (EC50) lay within 100 to 500 nM.

For `O=C(CC1CCNCC1)Nc1ccn(CCC(F)Cn2cc(C(=O)NCc3cccc(OC(F)(F)F)c3)nn2)c(=O)c1F` (stereo not drawn) [Example 299, 1-(2-fluoro-4-{3-fluoro-2-oxo-4-[2-(piperidin-4-yl)acetamido]-1,2-dihydropyridin-1-yl}butyl)-N-{[3-(trifluoromethoxy)phenyl]methyl}-1H-1,2,3-triazole-4-carboxamide], the IC50 in experiment [1] was in the range of 100 to 500 nM. Moreover, the EC50 in experiment [2] is 500 to 5000 nM.

On to `O=C(Cc1cccc(OC(F)(F)F)c1)Nc1ccc(CCCCn2ccc(NC(=O)[C@@H](O)c3ccccc3)nc2=O)nn1` [Example 78, (2S)-2-hydroxy-N-{2-oxo-1-[4-(6-{2-[3-(trifluoro-methoxy)phenyl]acetamido}pyridazin-3-yl)butyl]-1,2-dihydropyrimidin-4-yl}-2-phenylacetamide], for which, in experiment [1], the IC50 is less than 100 nM. This compound also displayed an EC50 in experiment [2] of less than 100 nM.

For `CC(C)CNC(=O)c1cn(CC(F)CCn2ccc(NC(=O)CN3CCN(C(=O)OC(C)(C)C)CC3)cc2=O)nn1` (stereo not drawn) [Example 404, tert-butyl 4-({[1-(3-fluoro-4-{4-[(2-methylpropyl)carbamoyl]-lH-1,2,3-triazol-1-yl}butyl)-2-oxo-1,2-dihydropyridin-4-yl]carbamoyl}methyl)piperazine-1-carboxylate], the IC50 in experiment [1] was 100 to 500 nM. Further, in experiment [2], the EC50 was in the range of 500 to 5000 nM.

In the case of `O=C(Cc1ccsc1)Nc1ccn(CCCCn2cc(C(=O)NCc3cccc(OC(F)(F)F)c3)nn2)c(=O)c1` [Example 203, 1-(4-{2-oxo-4-[2-(thiophen-3-yl)acetamido]-1,2-dihydropyridin-1-yl}butyl)-N-{[3-(trifluoromethoxy)phenyl]methyl}-1H-1,2,3-triazole-4-carboxamide], the concentration for half-maximal inhibition (IC50) in experiment [1] is less than 100 nM. Further, the EC50 in experiment [2] was 100 to 500 nM.

As to `Cc1ccc(CNC(=O)c2cn(CC(F)CCn3ccc(NC(=O)C(=O)N4CCCCC4)c(F)c3=O)nn2)cn1` (stereo not drawn) [Example 412, 1-(2-fluoro-4-{3-fluoro-2-oxo-4-[2-oxo-2-(piperidin-1-yl)acetamido]-1,2-dihydropyridin-1-yl}butyl)-N-[(6-methylpyridin-3-yl)methyl]-1H-1,2,3-triazole-4-carboxamide], the IC50 in experiment [1] is 100 to 500 nM. This compound also registered an EC50 in experiment [2] of 500 to 5000 nM.

On to `CCOC(=O)c1cn(CC(F)CCn2ccc(NC(=O)OC(C)(C)C)c(F)c2=O)nn1` (stereo not drawn) [Example 311, ethyl 1-[4-(4-{[(tert-butoxy)carbonyl]amino}-3-fluoro-2-oxo-1,2-dihydropyridin-1-yl)-2-fluorobutyl]-1H-1,2,3-triazole-4-carboxylate], for which the IC50 in experiment [1] is 500 to 5000 nM. The compound also returned an EC50 in experiment [2] of more than 5000 nM.

As for `Cn1cc(CC(=O)Nc2ccn(CCCCc3ccc(NC(=O)Cc4cccc(OC(F)(F)F)c4)nn3)c(=O)n2)cn1` [Example 114, N-[6-(4-{4-[2-(1-methyl-1H-pyrazol-4-yl)acetamido]-2-oxo-1,2-dihydropyrimidin-1-yl}butyl)pyridazin-3-yl]-2-[3-(trifluoromethoxy)phenyl]acetamide], the IC50 in experiment [1] was less than 100 nM. The EC50 in experiment [2] was less than 100 nM.

For the compound `O=C(Cc1ccccc1)Nc1ccn(CCCCn2cc(C(=O)NCC3CCCCC3)nn2)c(=O)c1` [Example 36, N-(cyclohexylmethyl)-1-{4-[2-oxo-4-(2-phenylacetamido)-1,2-dihydropyridin-1-yl]butyl}-1H-1,2,3-triazole-4-carboxamide], the IC50 in experiment [1] lay in the range of 100 to 500 nM. For the same compound, the EC50 in experiment [2] was 500 to 5000 nM.

As to `CC(C)CC(=O)Nc1ccn(CCCCn2cc(C(=O)NCc3cccc(OC(F)(F)F)c3)nn2)c(=O)c1` [Example 5, 1-(4-(4-(3-methylbutanamido)-2-oxopyridin-1(2H)-yl)butyl)-N-(3-(trifluoromethoxy)benzyl)-1H-1,2,3-triazole-4-carboxamide], in experiment [1], the IC50 was less than 100 nM. In addition, in experiment [2], the EC50 lay within 100 to 500 nM.

Take `Cc1ccc(CNC(=O)c2cn(CC(F)CCn3ccc(NC(=O)CC4CCSCC4)cc3=O)nn2)cn1` (stereo not drawn) [Example 198, 1-(2-fluoro-4-{2-oxo-4-[2-(thian-4-yl)acetamido]-1,2-dihydropyridin-1-yl}butyl)-N-[(6-methylpyridin-3-yl)methyl]-1H-1,2,3-triazole-4-carboxamide]: in experiment [1], the IC50 is less than 100 nM. In experiment [2], this compound registered an EC50 of 100 to 500 nM.

Turning to `O=C(NCc1cccnc1)c1ccn(CCCCn2cc(C(=O)NCc3cccc(OC(F)(F)F)c3)nn2)c(=O)c1` [Example 60, 2-oxo-N-(pyridin-3-ylmethyl)-1-{4-[4-({[3-(trifluoro-methoxy)phenyl]methyl}carbamoyl)-1H-1,2,3-triazol-1-yl]butyl}-1,2-dihydropyridine-4-carboxamide], the IC50 in experiment [1] was 100 to 500 nM. The compound also returned an EC50 in experiment [2] of more than 5000 nM.

`Cn1cc(CC(=O)Nc2ccn(CCCCn3cc(C(=O)NCc4cccc(OC(F)(F)F)c4)nn3)c(=O)c2)cn1` [Example 46, 1-(4-{4-[2-(1-methyl-1H-pyrazol-4-yl)acetamido]-2-oxo-1,2-dihydropyridin-1-yl}butyl)-N-{[3-(trifluoromethoxy)phenyl]methyl}-1H-1,2,3-triazole-4-carboxamide]: the IC50 in experiment [1] fell in the range of 100 to 500 nM. In experiment [2], this compound yielded an EC50 of more than 5000 nM.

As to `Nc1ccn(CCC(F)Cn2cc(C(=O)NCc3cccc(OC(F)(F)F)c3)nn2)c(=O)c1F` (stereo not drawn) [Example 282, 1-[4-(4-amino-3-fluoro-2-oxo-1,2-dihydropyridin-1-yl)-2-fluorobutyl]-N-{[3-(trifluoromethoxy)phenyl]methyl}-1H-1,2,3-triazole-4-carboxamide], the half-maximal inhibitory concentration (IC50) in experiment [1] lay within 500 to 5000 nM. In experiment [2], this compound had an EC50 of more than 5000 nM.

On to `O=C(Nc1ccn(CCC(F)Cn2cc(C(=O)NCc3cccc(OC(F)(F)F)c3)nn2)c(=O)c1F)C(=O)N1CCCCC1` (stereo not drawn) [Example 358, 1-(2-fluoro-4-(3-fluoro-2-oxo-4-(2-oxo-2-(piperidin-1-yl)acetamido)pyridin-1(2H)-yl)butyl)-N-(3-(trifluoromethoxy)benzyl)-1H-1,2,3-triazole-4-carboxamide], for which the IC50 in experiment [1] is less than 100 nM. For the same compound, in experiment [2], the EC50 is less than 100 nM.

For `Cc1ccc(CNC(=O)c2nnc(CCCCn3ccc(NC(=O)Cc4cccc(OC(F)(F)F)c4)cc3=O)s2)cn1` [Example 442, N-[(6-methylpyridin-3-yl)methyl]-5-[4-(2-oxo-4-{2-[3-(trifluoromethoxy)phenyl]acetamido}-1,2-dihydropyridin-1-yl)butyl]-1,3,4-thiadiazole-2-carboxamide], the IC50 in experiment [1] was less than 100 nM. This compound had an EC50 in experiment [2] of less than 100 nM.

Regarding `CC(C(=O)Nc1ccn(CCC(F)Cn2cc(C(=O)NCc3cc(C(F)(F)F)ccn3)nn2)c(=O)c1F)N1CCCCC1` (stereo not drawn) [Example 345, 1-(2-fluoro-4-{3-fluoro-2-oxo-4-[2-(piperidin-1-yl)propanamido]-1,2-dihydropyridin-1-yl}butyl)-N-{[4-(trifluoromethyl)pyridin-2-yl]methyl}-1H-1,2,3-triazole-4-carboxamide], the IC50 in experiment [1] lay within 100 to 500 nM. This compound registered a 50% effective concentration (EC50) in experiment [2] of less than 100 nM.

On to `Nc1ccn(CCC(F)Cn2cc(C(=O)NCc3ccc(C(F)(F)F)nc3)nn2)c(=O)c1F` (stereo not drawn) [Example 366, 1-[4-(4-amino-3-fluoro-2-oxo-1,2-dihydropyridin-1-yl)-2-fluorobutyl]-N-{[6-(trifluoromethyl)pyridin-3-yl]methyl}-1H-1,2,3-triazole-4-carboxamide], for which the IC50 in experiment [1] is more than 5000 nM. The compound also had an EC50 in experiment [2] of more than 5000 nM.

For `O=C(NCc1cccc(OC(F)(F)F)c1)c1cn(CC(F)CCn2ccc(COc3ccccn3)cc2=O)nn1` (stereo not drawn) [Example 480, 1-(2-fluoro-4-{2-oxo-4-[(pyridin-2-yloxy)methyl]-1,2-dihydropyridin-1-yl}butyl)-N-{[3-(trifluoromethoxy)phenyl]methyl}-1H-1,2,3-triazole-4-carboxamide], the IC50 in experiment [1] was 100 to 500 nM. In experiment [2], this compound gave an EC50 of 500 to 5000 nM.

As to `O=C(CC1CCCC1)Nc1ccn(CCC(F)Cn2cc(C(=O)NCc3ccc(OC(F)(F)F)cn3)nn2)c(=O)c1F` (stereo not drawn) [Example 400, 1-{4-[4-(2-cyclopentylacetamido)-3-fluoro-2-oxo-1,2-dihydropyridin-1-yl]-2-fluorobutyl}-N-{[5-(trifluoromethoxy)pyridin-2-yl]methyl}-1H-1,2,3-triazole-4-carboxamide], in experiment [1], the IC50 is less than 100 nM. In experiment [2], this compound registered an EC50 of less than 100 nM.
